Like-named read-outs stand apart in the source and are kept apart here. Bridge positions count the residues as written; N and C are the ends. Square brackets hold non-standard residues; d marks the D form. Peptide text beside a SMILES is read from it. Dab = NCC[C@H](N)C(=O)O
Key:
WDR5^WT (WBM site) = WDR5^WT (WBM site) (Homo sapiens, UniProt P61964)
WDR5^WT (WIN site) = WDR5^WT (WIN site) (Homo sapiens, UniProt P61964); settings: for inhibition at the WIN site: competitive FP, tracer 1F
[1] = test system: HOTTIP expression in MDA-MB-231 cells; settings: for HOTTIP fold change: mean ± SD
[2] = test system: FOXD3-AS1 expression in MDA-MB-231 cells; settings: for FOXD3-AS1 fold change: mean ± SD
[3] = test system: TGF-β1 expression in MDA-MB-231 cells; settings: 3 d, vs blank = 1.000, mean ± SD
[4] = 1 µM, 3 d, exp 8 (individual bioreplicate), vs blank = 1.000
[5] = 1 µM, 3 d, exp 9 (individual bioreplicate), vs blank = 1.000
[6] = 5 µM, 3 d, exp 7 (individual bioreplicate), vs blank = 1.000
[7] = 5 µM, 3 d, exp 8 (individual bioreplicate), vs blank = 1.000
[8] = 5 µM, 3 d, exp 9 (individual bioreplicate), vs blank = 1.000
[9] = 10 µM, 1 d, Exp. 1 (individual bioreplicate), vs blank 0.1% DMSO = 1.000
[10] = 10 µM, 1 d, Exp. 2 (individual bioreplicate), vs blank 0.1% DMSO = 1.000
[11] = 10 µM, 1 d, Exp. 3 (individual bioreplicate), vs blank 0.1% DMSO = 1.000
[12] = 10 µM, 1 d, Exp. 4 (individual bioreplicate), vs blank 0.1% DMSO = 1.000
[13] = 10 µM, 1 d, Exp. 5 (individual bioreplicate), vs blank 0.1% DMSO = 1.000
[14] = 10 µM, 1 d, Exp. 6 (individual bioreplicate), vs blank 0.1% DMSO = 1.000
[15] = 10 µM, 3 d, Exp. 7 (individual bioreplicate), vs blank 0.1% DMSO = 1.000
[16] = 10 µM, 3 d, Exp. 8 (individual bioreplicate), vs blank 0.1% DMSO = 1.000
[17] = 10 µM, 3 d, Exp. 9 (individual bioreplicate), vs blank 0.1% DMSO = 1.000
[18] = 10 µM, 3 d, Exp. 10 (individual bioreplicate), vs blank 0.1% DMSO = 1.000
[19] = 10 µM, 3 d, Exp. 11 (individual bioreplicate), vs blank 0.1% DMSO = 1.000
[20] = 10 µM, 3 d, Exp. 12 (individual bioreplicate), vs blank 0.1% DMSO = 1.000
[21] = MDA-MB-231, three days, 1/5/10 μM tested

For `CC(=O)N[C@@H](C)C(=O)N[C@@H](CCCNC(=N)N)C(=O)N[C@H](C(=O)N[C@@H](CCC(=O)O)C(=O)N[C@H](C(=O)N[C@@H](Cc1c[nH]cn1)C(=O)N[C@@H](CC(C)C)C(=O)N[C@@H](CCCNC(=N)N)C(=O)N[C@@H](CCCCN)C(=O)N[C@@H](CO)C(N)=O)C(C)C)[C@@H](C)O` [1NH2], the “inhibition at the WBM site” value (WDR5^WT (WBM site); competitive FP, tracer 2F) was “does not inhibit the WBM-site”.

`CC[C@H](C)[C@H](NC(=O)[C@H](CCC(=O)O)NC(=O)[C@H](CCC(=O)O)NC(=O)[C@H](CCC(=O)O)NC(=O)[C@H](CC(=O)O)NC(C)=O)C(=O)N[C@H]1CC(=O)NCC[C@@H](C(=O)N[C@H](C(=O)N[C@@H](CCC(=O)O)C(N)=O)C(C)C)NC(=O)[C@H](C(C)C)NC(=O)[C@H](C(C)C)NC1=O` [2Ac] (Ac-DEEEIDVV[Dab]VE-NH2; lactam 6-9) was tested, and the “inhibition at the WIN site” value (WDR5^WT (WIN site)) was “vice versa”.

In the case of `CNC(=O)c1cc(C2(C#N)CCC2)cc(NS(=O)(=O)c2cc(Br)cc(Cl)c2O)c1O` [7k, 3-((5-Bromo-3-chloro-2-hydroxyphenyl)sulfonamido)-5-(1cyanocyclobutyl)-2-hydroxy-N-methylbenzamide], the “inhibition at the WIN site” value (WDR5^WT (WIN site)) is reported as “did not observe any crossover inhibition”, the Ki (WDR5^WT (WIN site); read-out: Ki (tracer 1F), WIN site, WDR5^WT 2 nM, 1F 0.6 nM, HEPES pH 7.0, 0.01% Triton-X, 1% DMSO, mean ± SD of four replicates (two biological x two technical), converted from IC50) is reported as > 40000 nM and the Ki (WDR5^WT (WBM site); read-out: Ki (tracer 2F), WBM site, WDR5^WT 500 nM, 2F 5.0 nM, HEPES pH 7.0, 0.01% Triton-X, 1% DMSO, mean ± SD of four replicates (two biological x two technical), converted from IC50) is reported as 107 ± 20 nM. For the same compound, the HOTTIP fold change ([1]; 1 µM, 3 d, exp 7 (individual bioreplicate), vs blank = 1.000) was 0.923 ± 0.164, the HOTTIP fold change [1, 4] was 0.821 ± 0.069 and the HOTTIP fold change [1, 5] was 1.189 ± 0.152. It also gave an HOTTIP fold change [1, 6] of 0.643 ± 0.184, an HOTTIP fold change [1, 7] of 0.877 ± 0.062 and an HOTTIP fold change [1, 8] of 0.915 ± 0.153. For the same compound, the HOTTIP fold change [1, 9] was 0.963 ± 0.284, the HOTTIP fold change [1, 10] was 1.521 ± 0.182 and the HOTTIP fold change [1, 11] was 1.129 ± 0.176. The HOTTIP fold change [1, 12] was 0.970 ± 0.197, the HOTTIP fold change [1, 13] was 0.988 ± 0.141 and the HOTTIP fold change [1, 14] was 0.618 ± 0.071. It also gave an HOTTIP fold change [1, 15] of 0.464 ± 0.082, an HOTTIP fold change [1, 16] of 0.570 ± 0.035 and an HOTTIP fold change [1, 17] of 0.733 ± 0.095. It also gave an HOTTIP fold change [1, 18] of 0.646 ± 0.116, an HOTTIP fold change [1, 19] of 1.031 ± 0.214 and an HOTTIP fold change [1, 20] of 0.548 ± 0.132. For the same compound, the “concentration required for significant changes of HOTTIP expression” value [1, 21] was 10 µM, the FOXD3-AS1 fold change [2, 4] was 0.984 ± 0.128 and the FOXD3-AS1 fold change [2, 5] was 0.971 ± 0.104. The FOXD3-AS1 fold change [2, 6] was 0.753 ± 0.078, the FOXD3-AS1 fold change [2, 7] was 1.178 ± 0.131 and the FOXD3-AS1 fold change [2, 8] was 1.020 ± 0.085. For the same compound, the FOXD3-AS1 fold change [2, 9] was 0.913 ± 0.098, the FOXD3-AS1 fold change [2, 10] was 1.000 ± 0.050 and the FOXD3-AS1 fold change [2, 11] was 0.842 ± 0.122. The FOXD3-AS1 fold change [2, 12] was 0.826 ± 0.055, the FOXD3-AS1 fold change [2, 13] was 1.053 ± 0.047 and the FOXD3-AS1 fold change [2, 14] was 0.901 ± 0.056. The FOXD3-AS1 fold change [2, 15] was 0.756 ± 0.076, the FOXD3-AS1 fold change [2, 16] was 1.075 ± 0.124 and the FOXD3-AS1 fold change [2, 17] was 0.847 ± 0.077. For the same compound, the FOXD3-AS1 fold change [2, 18] was 0.798 ± 0.040, the FOXD3-AS1 fold change [2, 19] was 0.944 ± 0.033 and the FOXD3-AS1 fold change [2, 20] was 0.650 ± 0.065. It also gave a TGF-β1 fold change ([3]; 1 µM, exp 7 (individual bioreplicate)) of 0.972 ± 0.048, a TGF-β1 fold change ([3]; 1 µM, exp 8 (individual bioreplicate)) of 1.020 ± 0.062 and a TGF-β1 fold change ([3]; 1 µM, exp 9 (individual bioreplicate)) of 1.060 ± 0.127. For the same compound, the TGF-β1 fold change ([3]; 5 µM, exp 7 (individual bioreplicate)) was 0.916 ± 0.056, the TGF-β1 fold change ([3]; 5 µM, exp 8 (individual bioreplicate)) was 1.009 ± 0.079 and the TGF-β1 fold change ([3]; 5 µM, exp 9 (individual bioreplicate)) was 1.003 ± 0.120. For the same compound, the TGF-β1 fold change ([3]; 10 µM, exp 7 (individual bioreplicate)) was 0.972 ± 0.055, the TGF-β1 fold change ([3]; 10 µM, exp 8 (individual bioreplicate)) was 0.987 ± 0.059 and the TGF-β1 fold change ([3]; 10 µM, exp 9 (individual bioreplicate)) was 0.942 ± 0.101.

`CN1CCN(c2ccc(-c3cccc(CN4CCOCC4)c3)cc2NC(=O)c2c[nH]c(=O)cc2C(F)(F)F)CC1` [OICR-9429] was tested, and the “concentration of maximum effect on HOTTIP expression” value [1, 21] was 5 µM and the “concentration of maximum effect on FOXD3-AS1 expression” value [2, 21] was 5 µM.

From publication PMC10880924, “Small molecule WDR5 inhibitors down-regulate lncRNA expression” (RSC Medicinal Chemistry, 2024)
